# Laboratory results taken from ChEMBL document CHEMBL1121683, “Novel synthesis of (S)-1-[5-(benzoylamino)-1,4-dioxo-6-phenylhexyl]-L-proline and analogues: potent angiotensin converting enzyme inhibitors” (J Med Chem, 1981).
# How the values were obtained:
# Rattus norvegicus [1] = assay: Change in mean aortic blood pressure in the conscious renal hypertensive rat after oral administration of 30 mg/kg; assay type: functional, Artery
# Rattus norvegicus [2] = assay: Maximum effect of 30 mg/kg administered orally on mean aortic blood pressure in the conscious renal hypertensive rat; assay type: functional, Artery; conditions: route oral
# Rattus norvegicus [3] = assay: Time required after administration of 3 mg/kg of compound iv, for the AI response to return to 70% of the pretreatment control response; assay type: functional
# Rattus norvegicus [4] = assay: Maximum inhibition of the angiotensin I challenge at 30mg/kg, po in conscious, normotensive rats; assay type: functional
# Rattus norvegicus [5] = assay: Maximum inhibition of the angiotensin I challenge at 3 mg/kg, iv, in conscious, normotensive rats; assay type: functional
# Rattus norvegicus [6] = assay: Time required after administration of 30 mg/kg of compound po, for the AI response to return to 70% of the pretreatment control response; assay type: functional
# Rattus norvegicus [7] = assay: Maximum effect of 3 mg/kg of compound administered orally on mean aortic blood pressure in the conscious renal hypertensive rat; assay type: functional, Artery; conditions: route oral
# Rattus norvegicus [8] = assay: Change in mean aortic blood pressure in the conscious renal hypertensive rat after oral administration of 3 mg/kg; assay type: functional, Artery
# [9] = target: Angiotensin-converting enzyme (Homo sapiens, UniProt P12821); assay: Concentration required to inhibit the activity of Angiotensin I converting enzyme by 50%; assay type: protein assay, Cavia porcellus
# Rattus norvegicus [10] = assay: Maximum inhibition of the angiotensin I challenge at 0.3 mg/kg, po, in conscious, normotensive rats; assay type: functional
# Rattus norvegicus [11] = assay: Time required after administration of 0.03 mg/kg of compound po, for the AI response to return to 70% of the pretreatment control response; assay type: functional
# Rattus norvegicus [12] = assay: Maximum inhibition of the angiotensin I challenge at 0.03 mg/kg, po, in conscious, normotensive rats; assay type: functional
# Rattus norvegicus [13] = assay: Maximum effect of 0.3 mg/kg of compound administered orally on mean aortic blood pressure in the conscious renal hypertensive rat; assay type: functional, Artery; conditions: route oral
# Rattus norvegicus [14] = assay: Maximum inhibition of the angiotensin I challenge at 3 mg/kg, po, in conscious, normotensive rats; assay type: functional
# Rattus norvegicus [15] = assay: Time required after administration of 3 mg/kg of compound po, for the AI response to return to 70% of the pretreatment control response; assay type: functional
# Rattus norvegicus [16] = assay: Time required after administration of 0.3 mg/kg of compound po, for the AI response to return to 70% of the pretreatment control response; assay type: functional
# Rattus norvegicus [17] = assay: Change in mean aortic blood pressure in the conscious renal hypertensive rat after oral administration of 0.3 mg/kg; assay type: functional, Artery
# Angiotensin-converting enzyme, sequence (P12821 whole entry): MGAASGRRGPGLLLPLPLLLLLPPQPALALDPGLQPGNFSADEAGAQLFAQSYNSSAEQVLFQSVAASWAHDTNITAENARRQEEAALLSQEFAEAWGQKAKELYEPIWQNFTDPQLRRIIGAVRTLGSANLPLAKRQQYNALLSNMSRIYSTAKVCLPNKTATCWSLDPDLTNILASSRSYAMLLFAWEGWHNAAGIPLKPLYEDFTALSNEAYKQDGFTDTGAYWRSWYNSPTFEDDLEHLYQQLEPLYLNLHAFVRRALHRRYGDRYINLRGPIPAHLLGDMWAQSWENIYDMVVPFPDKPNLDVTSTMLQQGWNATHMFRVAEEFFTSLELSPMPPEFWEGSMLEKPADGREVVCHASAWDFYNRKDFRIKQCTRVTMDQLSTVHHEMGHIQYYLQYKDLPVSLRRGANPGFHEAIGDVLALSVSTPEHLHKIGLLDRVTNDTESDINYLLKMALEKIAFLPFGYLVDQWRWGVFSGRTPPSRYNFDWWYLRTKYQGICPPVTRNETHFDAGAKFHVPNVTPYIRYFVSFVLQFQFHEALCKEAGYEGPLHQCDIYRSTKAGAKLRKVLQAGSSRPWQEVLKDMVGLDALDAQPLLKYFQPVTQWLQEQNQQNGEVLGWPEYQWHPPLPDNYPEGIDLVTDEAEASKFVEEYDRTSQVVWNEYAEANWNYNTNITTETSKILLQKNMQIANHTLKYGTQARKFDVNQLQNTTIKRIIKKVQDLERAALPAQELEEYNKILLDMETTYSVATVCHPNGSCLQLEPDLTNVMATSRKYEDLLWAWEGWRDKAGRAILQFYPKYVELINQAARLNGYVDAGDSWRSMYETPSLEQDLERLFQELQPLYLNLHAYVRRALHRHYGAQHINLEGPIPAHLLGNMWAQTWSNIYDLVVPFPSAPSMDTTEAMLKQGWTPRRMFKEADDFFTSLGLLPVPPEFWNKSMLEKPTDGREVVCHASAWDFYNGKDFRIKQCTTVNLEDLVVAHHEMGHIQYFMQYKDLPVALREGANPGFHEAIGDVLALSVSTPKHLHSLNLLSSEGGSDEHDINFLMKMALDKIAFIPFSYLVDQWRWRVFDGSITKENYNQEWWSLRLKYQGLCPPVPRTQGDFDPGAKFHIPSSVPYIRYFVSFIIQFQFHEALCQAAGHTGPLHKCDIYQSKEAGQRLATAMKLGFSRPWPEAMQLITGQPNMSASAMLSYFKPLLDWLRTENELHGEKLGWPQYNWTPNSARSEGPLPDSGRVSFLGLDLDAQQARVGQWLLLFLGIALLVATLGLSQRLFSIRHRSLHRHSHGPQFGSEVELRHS
SMILES,Change (Rattus norvegicus [1]),Mean aortic blood pressure at maximum effect (Rattus norvegicus [2]),further results
O=C(NC(Cc1cccnc1)C(=O)CCC(=O)N1CCC[C@H]1C(=O)OCc1ccccc1)c1ccccc1 (some centres undefined),-32 mmHg,159 mmHg,–
O=C(NC(Cc1ccccc1)C(=O)CCC(=O)N1CCC[C@H]1C(=O)O)c1ccco1 (some centres undefined),-1 mmHg,184 mmHg,AI recovery time (Rattus norvegicus [3]): 52 min; Max inhibition (Rattus norvegicus [4]): 32%; Max inhibition (Rattus norvegicus [5]): 84%; AI recovery time (Rattus norvegicus [6]): 84 min
O=C(NC(Cc1ccccc1)C(=O)CCC(=O)N1CC(O)C[C@H]1C(=O)O)c1ccccc1 (some centres undefined),-20 mmHg,168 mmHg,–
O=C(NC(Cc1ccc(OCc2ccccc2)cc1)C(=O)CCC(=O)N1CCC[C@H]1C(=O)O)c1ccccc1 (some centres undefined),-5 mmHg,195 mmHg,–
CC(=O)NC(Cc1ccccc1)C(=O)CCC(=O)N1CCC[C@H]1C(=O)O (some centres undefined),-26 mmHg,176 mmHg,–
Cc1ccccc1C(=O)NC(Cc1ccccc1)C(=O)CCC(=O)N1CCC[C@H]1C(=O)O (some centres undefined),-15 mmHg,188 mmHg,–
O=C(NC(Cc1ccc(O)cc1)C(=O)CCC(=O)N1CCC[C@H]1C(=O)O)c1ccccc1 (some centres undefined),-23 mmHg,172 mmHg,AI recovery time (Rattus norvegicus [3]): 34 min; Max inhibition (Rattus norvegicus [4]): 46%; Max inhibition (Rattus norvegicus [5]): 82%; AI recovery time (Rattus norvegicus [6]): 24 min
COc1ccc(CC(NC(=O)c2ccccc2)C(=O)CCC(=O)N2CCC[C@H]2C(=O)O)cc1OC (some centres undefined),-5 mmHg,174 mmHg,AI recovery time (Rattus norvegicus [3]): 24 min; Max inhibition (Rattus norvegicus [4]): 33%; Max inhibition (Rattus norvegicus [5]): 74%; AI recovery time (Rattus norvegicus [6]): 5 min
O=C(NC(Cc1cccnc1)C(=O)CCC(=O)N1CCC[C@H]1C(=O)O)c1ccccc1 (some centres undefined),-20 mmHg,184 mmHg,–
Cc1ccccc1C(=O)NC(Cc1ccccc1)C(=O)CCC(=O)N1CCC[C@H]1C(=O)OCc1ccccc1 (some centres undefined),-20 mmHg,175 mmHg,–
O=C(NC(Cc1ccccc1)C(=O)CCC(=O)N1CCC[C@H]1C(=O)O)OCc1ccccc1 (some centres undefined),-22 mmHg,175 mmHg,–
COC(=O)[C@@H]1CCCN1C(=O)CCC(=O)C(Cc1ccccc1)NC(=O)c1ccccc1 (some centres undefined),-11 mmHg,142 mmHg,Max effect (Rattus norvegicus [7]): 165 mmHg; Change (Rattus norvegicus [8]): -34 mmHg
O=C(NC(Cc1ccccc1)C(=O)CCC(=O)N1CCCC1)c1ccccc1 (centres undefined),–,–,IC50 [9]: Not Active
O=C(CCC(=O)N1CCC[C@H]1C(=O)O)C(Cc1ccccc1)NC(=O)C1CCCO1 (some centres undefined),-23 mmHg,163 mmHg,Max inhibition (Rattus norvegicus [4]): 24%; Max inhibition (Rattus norvegicus [5]): 64%; AI recovery time (Rattus norvegicus [6]): 10 min
O=C(CCC(=O)C(Cc1ccccc1)NC(=O)c1ccccc1)NC(Cc1ccccc1)C(=O)OCc1ccccc1 (centres undefined),-5 mmHg,182 mmHg,–
O=C(N[C@@H](Cc1ccccc1)C(=O)CCC(=O)N1CCC[C@H]1C(=O)O)c1ccccc1,-12 mmHg,178 mmHg,AI recovery time (Rattus norvegicus [3]): 34 min; Max inhibition (Rattus norvegicus [4]): 48%; Max inhibition (Rattus norvegicus [5]): 57%; AI recovery time (Rattus norvegicus [6]): 49 min
C[C@H](CS)C(=O)N1CCC[C@H]1C(=O)O [CAPTOPRIL],-101 mmHg,85 mmHg,Max inhibition (Rattus norvegicus [10]): 69%; Max effect (Rattus norvegicus [7]): 99 mmHg; AI recovery time (Rattus norvegicus [11]): 80 min; Max inhibition (Rattus norvegicus [12]): 16%; Max effect (Rattus norvegicus [13]): 170 mmHg; Max inhibition (Rattus norvegicus [14]): 95%; AI recovery time (Rattus norvegicus [15]): >240 min; Change (Rattus norvegicus [8]): -93 mmHg; AI recovery time (Rattus norvegicus [16]): 170 min; Change (Rattus norvegicus [17]): -19 mmHg
